Data as given in patent US20260138957A1, “UREA-LINKED 2-AMINOIMIDAZOLE DIMER POTENTIATORS” (UNIVERSITY OF NOTRE DAME DU LAC, priority 2022, published 2026).
Converted amounts (≈) assume the structure as drawn. Where two headings read alike, the source gives them in different places.

Columns and labels:
[1] = Microsomal (metabolic) stability; format: in vitro ADME; details: 60 minutes
HepG2 cells = assay: Cytotoxicity, XTT assay with HepG2 cells; details: read-out: IC50, HepG2 cells; mammalian cell toxicity
[2] = test system: K. pneumoniae (strain KP 2146); assay: Standalone MIC against KP 2146; format: cell-based, Klebsiella pneumoniae; details: 9k alone
P. aeruginosa (PAO1) [3] = assay: Standalone MIC against PAO1; format: cell-based, Pseudomonas aeruginosa; details: 9k alone
Plasma stability = format: in vitro ADME; details: 4 hours
[4] = test system: A. baumannii strain 5075 (AB5075); assay: Clarithromycin potentiation against AB5075 (CLR MIC in presence of adjuvant); format: cell-based, Acinetobacter baumannii; details: for CLR MIC / Fold Reduction of CLR MIC / Clarithromycin (CLR) MIC: AB5075
P. aeruginosa (PAO1) [5] = assay: CLR MIC in combination with 9k against PAO1; format: cell-based, Pseudomonas aeruginosa
K. pneumoniae 2146 = assay: Combination with RIF against K. pneumoniae 2146; format: cell-based, Klebsiella pneumoniae; details: K. pneumoniae 2146, compared with the parent dimers
A. baumannii = assay: CLR adjuvant activity with exogenous LOS added to the media; format: cell-based, Acinetobacter baumannii; details: LOS from AB5075 at 0.2 mg/mL or 0.5 mg/mL
Description: First, we examined the impact that addition of MgCl2 had on activity. Divalent cations, such as Mg^2+, are known to stabilize the outer membrane of gram-negative bacteria and the activity of membrane disruptors are known to be muted/abrogated by the addition of such cations. When the media was supplemented with MgCl2 (20 mM final concentration), activity was essentially abolished. As suppression of activity could conceivably originate from either blocking the compound's mechanism of action or simply making the membrane more impermeable that leads to the inability of the compound to penetrate the outer membrane, we next studied the impact that the addition of exogenous LOS had upon activity.

AB5075 = assay: Potentiation of azithromycin, erythromycin and rifampin against AB5075; format: cell-based, Acinetobacter baumannii
AB 5075 [6] = assay: Colistin MIC in absence or presence of compounds against AB 5075; format: cell-based, Acinetobacter baumannii
From the text: However, dropping LOS comes with fitness costs such as reduced growth rates, lower virulence, and increased sensitivity towards certain antibiotics.

red blood cells = assay: Hemolysis assay; format: cell-based; details: 1% Triton X as 100% lysis control
[7] = test system: panel of A. baumannii isolates; assay: CLR potentiation against panel of A. baumannii isolates; format: cell-based, Acinetobacter baumannii; details: 25 AB strains, adjuvant at 10 μM (4.8 μg/mL) or less
membrane integrity = assay: BacLight assay of membrane integrity; format: cell-based; details: in comparison to untreated control
From the text: We then quantified how compound 9k impacted membrane integrity using the BacLight assay. Compound 9k had essentially no impact on the membrane in comparison to untreated control and produced a −1.2±2.2% change in membrane permeability.

[8] = test system: A. baumannii strain 5075 (AB5075); assay: Standalone MIC against AB5075 (compound or antibiotic alone); format: cell-based, Acinetobacter baumannii; details: Acinetobacter baumannii; compound alone, AB5075
From the text: Dimers were first analyzed for standalone toxicity against AB5075.

[9] = test system: K. pneumoniae (strain KP 2146); assay: CLR MIC in combination with 9k against KP 2146; format: cell-based, Klebsiella pneumoniae
[10] = test system: Escherichia coli (EC 25922); assay: CLR MIC in combination with 9k against EC 25922; format: cell-based
[11] = test system: Escherichia coli (EC 25922); assay: Standalone MIC against EC 25922; format: cell-based; details: 9k alone, read-out: Compound MIC
AB 5075 [12] = details: colistin alone, earlier work; cited from earlier work
[13] = AB5075, adjuvant at 7.5 μM (3.6 μg/mL)

Nc1nc(-c2ccc(NC(=O)Nc3cccc(-c4c[nH]c(N)n4)c3F)cc2F)c[nH]1 [Compound 9k, 1-(3-(2-amino-1H-imidazol-4-yl)-2-fluorophenyl)-3-(4-(2-amino-1H-imidazol-4-yl)-3-fluorophenyl)urea]
microsomal stability (in words) [1]: steady concentration over 60 minutes
IC50 (HepG2 cells): 431 µM
Compound MIC [2]: >200 µM
Compound MIC (P. aeruginosa (PAO1) [3]): >200 µM
plasma stability (in words) (Plasma stability): steady concentration over 4 hours
lowest concentration at which the adjuvant suppressed the clarithromycin MIC to 2.0 μg/mL ([4]; AB5075, value in brackets): 0.72 µg/mL
CLR MIC ([4]; adjuvant at 1.5 μM): 2 µg/mL
Fold Reduction of CLR MIC ([4]; adjuvant at 1.5 μM): 16 fold
CLR MIC ([4]; adjuvant at 2.5 μM): 0.125 µg/mL
Fold Reduction of CLR MIC ([4]; adjuvant at 2.5 μM): 256 fold
Clarithromycin (CLR) MIC ([4]; adjuvant at 5 μM): 0.0625 µg/mL
Fold Reduction of CLR MIC ([4]; adjuvant at 5 μM): 512 fold
Clarithromycin (CLR) MIC ([4]; adjuvant at 7.5 μM): ≤0.0625 µg/mL
Fold Reduction of CLR MIC ([4]; adjuvant at 7.5 μM): ≥512 fold
Clarithromycin (CLR) MIC ([4]; adjuvant at 10 μM): ≤0.0625 µg/mL
Fold Reduction of CLR MIC ([4]; adjuvant at 10 μM): ≥512 fold
Clarithromycin (CLR) MIC ([4]; adjuvant at 20 μM): ≤0.0625 µg/mL
Fold Reduction of CLR MIC ([4]; adjuvant at 20 μM): ≥512 fold
Clarithromycin (CLR) MIC ([4]; adjuvant at 30 μM): ≤0.0625 µg/mL
Fold Reduction of CLR MIC ([4]; adjuvant at 30 μM): ≥512 fold
fold potentiation of CLR (P. aeruginosa (PAO1) [5]): at least 256 fold
CLR MIC + 9k (P. aeruginosa (PAO1) [5]; 9k at 20 μM): 4/8
CLR MIC + 9k (P. aeruginosa (PAO1) [5]; 9k at 30 μM): 0.5 µg/mL
potentiation of RIF (in words) (K. pneumoniae 2146): greater potentiation activity at lower concentrations
CLR adjuvant activity with exogenous LOS (in words) (A. baumannii): no loss of adjuvant activity
fold decrease of RIF MIC (AB5075; AB5075, adjuvant at 5 μM (2.4 μg/mL)): 32 fold
fold decrease of AZM MIC (AB5075; [13]): at least 64 fold
fold decrease of ERY MIC (AB5075; [13]): at least 64 fold
fold decrease of RIF MIC (AB5075; AB5075, adjuvant at 10 μM): 32 fold
activity in combination with AZM, ERM and RIF (in words) (AB5075; AB5075, adjuvant at ≤30% their MIC): significant activity
potentiation of colistin (in words) (AB 5075 [6]; AB5075): did not potentiate the activity
Colistin MIC (AB 5075 [6]; adjuvant at 30 μM, AB5075): 2 µg/mL
lytic effect on red blood cells (in words) (red blood cells; compound at 10 μM in combination with 0.0625 μg/mL clarithromycin): little to no lytic effect
lytic effect on red blood cells (in words) (red blood cells; compound): little to no lytic effect
lowering of CLR MIC values [7]: at least four-fold
change in membrane permeability (membrane integrity): −1.2±2.2%
MIC [8]: > 200 µM
fold potentiation of CLR [9]: at least 256 fold
CLR MIC + 9k ([9]; 9k at 7.5 μM): 16 µg/mL
CLR MIC + 9k ([9]; 9k at 10 μM): 2 µg/mL
CLR MIC + 9k ([9]; 9k at 30 μM): 1 µg/mL
fold potentiation of CLR [10]: at least 256 fold
CLR MIC + 9k ([10]; 9k at 2.5 μM): 32 µg/mL
CLR MIC + 9k ([10]; 9k at 3.0 μM): 4 µg/mL
CLR MIC + 9k ([10]; 9k at 3.75 μM): 0.125 µg/mL
MIC [11]: 12.5 µM (≈ 5.13 µg/mL)

colistin [reference compound]
Colistin MIC (AB 5075 [12]): 1 µg/mL
Colistin MIC (AB 5075 [6]; colistin alone): 1 µg/mL
Colistin MIC (AB 5075 [6]; colistin alone, AB 5075): 1 µg/mL
